What was measured:
[1] = tested on: Huh7.5 cells; test: Cytotoxicity assay, non-cytotoxic dose range (Example 3); format: cell-based, human; conditions: at the doses used in this study
Description: A cytotoxicity assay was performed for PSI-7977, as we had not used this drug previously. The non-cytotoxic dose range for telaprevir, boceprevir, simeprevir, daclatasvir, and interferon-α2b was determined.

[2] = tested on: TN full-length virus; test: HCV antiviral treatment of Huh7.5 cells infected with TN full-length virus (first passage TN_LSGF/A1226G/Q1773H); format: cell-based, hepatitis C virus (genotype 1a); conditions: for inhibition of TN full-length virus: DAAs 24 hours post-infection, interferon-α2b 24 and 48 hours, HCV positive cells 72 hours post-infection
Description: (§1) Naïve Huh7.5 cells were infected with first passage virus stock of TN full-length recombinant TN_LSGF/A1226G/Q1773H; the ORF sequence of this virus stock is shown in FIGS. 16 and 17. A J6/JFH1 virus stock was treated in parallel. Antivirals were administered 24 hours post infection at the indicated doses; interferon-α2b was also administered 48 hours post infection. The number of HCV positive cells per well was determined 72 hours post infection. (A) Dose response curves for treatments with lead compound protease inhibitors telaprevir (VX-950), boceprevir (SCH503034), and simeprevir (TMC435), NS5A inhibitor daclatasvir (BMS-790052), and NS5B inhibitor PSI-7977, as well as interferon-α2b. Values are means of triplicate determinations with SEM. (B) Median effective concentrations (EC50) of the used inhibitors against the indicated viruses. Values for EC50 and 95% confidence interval are shown.
(§2) HCV antiviral treatment. HCV DAAs were purchased from Acme Bioscience (Palo Alto, Calif.) and dissolved in dimethyl sulfoxide. Inerferon-α2b was purchased from Schering-Plough (Kenilworth, N.J.).
Briefly, Huh7.5 cells grown in poly-D-lysine-coated 96-well plates (Nunc) were infected with HCV and treated with DAAs 24 hours post-infection. Treatment with interferon-α2b was performed at 24 and 48 hours post-infection. Single HCV Core and NS5A positive cells were determined 72 hours post-infection by immunostaining with combination of C7-50 (Enzo Life Sciences) and 9E10 antibodies. Dose response curves were fitted and EC50 values with 95% confidence interval were calculated in GraphPad Prim 4 (Graphpad).

[3] = tested on: J6 full-length virus; test: HCV antiviral treatment of Huh7.5 cells infected with J6 full-length virus (fourth passage J6_LSGΔ33U); format: cell-based, hepatitis C virus (genotype 2a); conditions: for inhibition of full-length J6 culture viruses: treatment 24 and 48 hours post-infection, HCV positive cells counted 72 hours post-infection
Description: (§3) Naïve Huh7.5 cells were infected with indicated viruses, and antiviral treatments were carried out at 24 and 48 hours post-infection. The HCV positive cells were counted 72 hours post-infection as previously described. Fourth passage J6 full-length J6_LSGΔ33U virus (Table 3) was used for treatment. Treatment experiments with recombinants J6^5′UTR-NS2/JFH1, J6^Core-NS2,NS3 protease, NS4A/JFH1 and J6^Core-NS2,NS5A/JFH1 were included for comparison. (A) Treatment with protease inhibitors (boceprevir and TMC435) and the NS5A inhibitor daclatasvir (BMS-790052). (B) Treatment with NS5B inhibitors. (C) Median effective concentrations (EC50) of the used inhibitors against the indicated viruses. *, range of two experiments; experiments with the lowest EC50 shown in A or B. In A and B, values are means of triplicate determinations.
(§4) HCV antiviral treatment. HCV antivirals were purchased from Acme Bioscience (Palo Alto, Calif.) and dissolved in dimethyl sulfoxide. Huh7.5 cells grown in poly-D-lysine-coated 96-well plates (Nunc) were infected with HCV and treated with antivirals 24 and 48 hours post-infection as previously described. Single HCV core positive cells were determined by immunostaining with C7-50 (Enzo Life Sciences) 72 hours post-infection.

[4] = tested on: J6/JFH1; test: HCV antiviral treatment of Huh7.5 cells infected with J6/JFH1 virus stock; format: cell-based, hepatitis C virus (genotype 2a); conditions: stated for HCV of genotypes 1 and 2
Description: as §1, §2
Briefly, Huh7.5 cells grown in poly-D-lysine-coated 96-well plates (Nunc) were infected with HCV and treated with DAAs 24 hours post-infection. […] Single HCV Core and NS5A positive cells were determined 72 hours post-infection by immunostaining with combination of C7-50 (Enzo Life Sciences) and 9E10 antibodies. […]

[5] = tested on: J6/JFH1-based recombinant with TN NS5A; test: HCV antiviral treatment, J6/JFH1-based recombinant with TN NS5A; format: cell-based; conditions: Hepatitis C virus, read-out: Median effective concentration (EC50)
[6] = tested on: J6/JFH1 with J6-specific NS3/NS4A protease; test: HCV antiviral treatment of Huh7.5 cells infected with J6/JFH1 with J6-specific NS3/NS4A protease; format: cell-based, hepatitis C virus (genotype 2a); conditions: J6/JFH1 with J6-specific NS3/NS4A protease compared to J6^5′UTR-NS2/JFH1
Description: as §3, §4

[7] = J6 virus compared to J6^5′UTR-NS2/JFH1

Row | Compound | cytotoxic effects [1] | inhibition of TN full-length virus [2] | fold lower EC50 compared to J6^5′UTR-NS2/JFH1 [3, 7] | inhibition of full-length J6 culture viruses [3] | other results
1 | interferon-α2b | No cytotoxic effects | dose-dependently inhibited | – | – | –
2 | C[C@@]1(F)[C@H](O)[C@@H](CO)O[C@H]1n1ccc(N)nc1=O [PSI-6130] | – | – | around 4 fold | inhibited | –
3 | CC(C)(C)NC(=O)N[C@H](C(=O)N1C[C@H]2[C@@H]([C@H]1C(=O)NC(CC1CCC1)C(=O)C(N)=O)C2(C)C)C(C)(C)C (stereo partly drawn) [boceprevir] | No cytotoxic effects | – | – | – | –
4 | CC(C)[C@H](N)C(=O)O[C@@H]1[C@@H](CO)O[C@@H](n2ccc(N)nc2=O)[C@]1(C)O [NM283] | – | – | ~6 fold | inhibited | –
5 | CC(C)OC(=O)[C@H](C)N[P@](=O)(OC[C@H]1O[C@@H](n2ccc(=O)[nH]c2=O)[C@](C)(F)[C@@H]1O)Oc1ccccc1 [PSI-7977] | No cytotoxic effects | dose-dependently inhibited | – | – | inhibition of HCV of genotype 2 (J6/JFH1) [4]: efficiently inhibit
6 | COC(=O)N[C@H](C(=O)N1CCC[C@H]1c1nc(-c2ccc(-c3ccc(-c4c[nH]c([C@@H]5CCCN5C(=O)[C@@H](NC(=O)OC)C(C)C)n4)cc3)cc2)c[nH]1)C(C)C [daclatasvir] | No cytotoxic effects | – | – | – | EC50 [5]: 0.042 nM; EC50 ([2]; Hepatitis C virus, TN full-length virus, 72 hours post-infection, read-out: Median effective concentration (EC50)): 0.032 nM
7 | CCC[C@H](NC(=O)[C@@H]1[C@H]2CCC[C@H]2CN1C(=O)[C@@H](NC(=O)[C@@H](NC(=O)c1cnccn1)C1CCCCC1)C(C)(C)C)C(=O)C(=O)NC1CC1 [telaprevir] | No cytotoxic effects | – | – | – | –
8 | COc1ccc2c(O[C@@H]3C[C@H]4C(=O)N[C@]5(C(=O)NS(=O)(=O)C6CC6)C[C@H]5/C=C\CCCCN(C)C(=O)[C@@H]4C3)cc(-c3nc(C(C)C)cs3)nc2c1C [TMC435, simeprevir] | No cytotoxic effects | dose-dependently inhibited | – | inhibited | fold higher EC50 than that found for J6^5′UTR-NS2/JFH1 [3, 7]: 2-3 fold; fold higher EC50 than that found for J6^5′UTR-NS2/JFH1 [6]: 2-3 fold
9 | CNC(=O)c1c(-c2ccc(F)cc2)oc2cc(N(CCO)S(C)(=O)=O)c(C3CC3)cc12 [HCV-796] | – | – | ~2 fold | inhibited | –

Source: patent US9382517B2, “HCV full-length infectious cell culture systems and applications thereof” (priority 2012, dated 2016)
